Measurements as given in patent US6849712B1, “Peptides with β1 integrin subunit dependent cell adhesion modulating activity” (Regents of the University of Minnesota, priority 1998, dated 2005).
pIC50: −log10 of the molar value. Where no end group is shown, it is not given here.

What was measured:
α4β1 integrin = α4β1 integrin (Homo sapiens, UniProt P05556+P13612); experiment: α4β1 integrin-dependent Mn+2 stimulated M16B adhesion to rCS1; type: cell-based; design: endogenous in cells; conditions: soluble peptide
α5β1 integrin = molecular target: T1, α5β1 integrin (Homo sapiens, UniProt P05556+P08648); experiment: Inhibition of α5β1 integrin dependent Mn+2 stimulated adhesion of K562 cells to fibronectin (FN); type: cell-based
T1 construct: erythroleukemic cell line K562, which expresses α5β1 but not α4β1 integrin; endogenous in cells; host or cells: K562 cells
Method: The cell adhesion assay was carried out as described above. […] Each data point represents the mean of triplicate determinations and the error bars represent the standard deviation of the mean. The solid black line represents adhesion to the negative control substrate, BSA.

α2β1 and α3β1 integrin = experiment: Inhibition of α2β1, α3β1 integrin dependent human melanoma M14#5 cell adhesion to laminin and type IV collagen; type: cell-based; conditions: 0.5 mg/ml peptide (0.42 mM), 30 minutes
Method: An experiment was conducted to examine the ability of FN-C/H V+Y (SEQ ID NO:1) to inhibit α2β1, α3β1 integrin dependent cell adhesion using an assay based on human melanoma cells (M14#5).
Laminin, type IV collagen and BSA were coated overnight in a 96 well microtiter plate at 10 μg/ml and blocked with 0.3% BSA. M14#5 cells were preincubated with 0.5 mg/ml of peptide (equivalent to 0.42 mM FN-C/H V and scrambled FN-C/H V and 0.17 mM CSI) and allowed to adhere to substrates for 30 minutes.

α1β2 (LFA-1) integrin = molecular target: T2, α1β2 (LFA-1) integrin (Homo sapiens, UniProt P05107+P20701); experiment: α1β2 (LFA-1) integrin dependent M16B adhesion to rICAM; type: cell-based
T2 construct: the B-cell line M16B (which both express functional α4β1 and α1β2 integrin); endogenous in cells; host or cells: M16B B-cell line
Method: To determine whether inhibition of adhesion by soluble FN-C/H V is specific for b1 integrins, the ability of this peptide to inhibit β2 integrin-dependent adhesion was also evaluated.

[1] = tested on: peripheral blood mononuclear cells and spleen cells; conditions: reported, Wahl et al.; cited from earlier work
[2] = in vivo rat model, reported; cited from earlier work
VCAM = conditions: reported; cited from earlier work

T1 sequence (P08648 42-894 limits assumed): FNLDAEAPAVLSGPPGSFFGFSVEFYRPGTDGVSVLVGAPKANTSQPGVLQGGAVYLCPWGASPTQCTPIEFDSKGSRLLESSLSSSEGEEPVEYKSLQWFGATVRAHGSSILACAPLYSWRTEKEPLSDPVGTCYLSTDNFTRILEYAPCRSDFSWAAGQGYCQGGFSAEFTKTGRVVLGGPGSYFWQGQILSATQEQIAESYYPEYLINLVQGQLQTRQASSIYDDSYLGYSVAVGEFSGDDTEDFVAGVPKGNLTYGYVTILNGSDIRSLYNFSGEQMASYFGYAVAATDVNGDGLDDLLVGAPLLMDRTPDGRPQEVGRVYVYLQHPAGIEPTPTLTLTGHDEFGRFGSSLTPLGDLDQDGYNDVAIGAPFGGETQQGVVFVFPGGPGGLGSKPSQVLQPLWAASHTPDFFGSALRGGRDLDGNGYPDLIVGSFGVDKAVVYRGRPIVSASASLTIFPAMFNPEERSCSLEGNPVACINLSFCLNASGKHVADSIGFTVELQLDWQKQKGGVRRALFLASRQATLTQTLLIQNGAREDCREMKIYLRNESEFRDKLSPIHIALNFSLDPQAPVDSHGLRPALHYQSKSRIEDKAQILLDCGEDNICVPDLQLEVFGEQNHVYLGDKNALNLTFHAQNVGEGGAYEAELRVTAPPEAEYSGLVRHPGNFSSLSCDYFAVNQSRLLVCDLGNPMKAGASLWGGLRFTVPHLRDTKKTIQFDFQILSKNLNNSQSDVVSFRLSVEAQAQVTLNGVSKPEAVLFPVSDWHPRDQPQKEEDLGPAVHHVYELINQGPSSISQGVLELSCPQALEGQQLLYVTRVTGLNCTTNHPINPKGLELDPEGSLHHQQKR
T1 sequence (P08648 895-1049 limits assumed): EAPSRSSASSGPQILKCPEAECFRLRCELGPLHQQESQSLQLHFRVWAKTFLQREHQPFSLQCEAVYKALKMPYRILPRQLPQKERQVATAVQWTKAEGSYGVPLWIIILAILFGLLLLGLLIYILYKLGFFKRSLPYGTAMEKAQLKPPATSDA
T1 sequence (P05556 21-798): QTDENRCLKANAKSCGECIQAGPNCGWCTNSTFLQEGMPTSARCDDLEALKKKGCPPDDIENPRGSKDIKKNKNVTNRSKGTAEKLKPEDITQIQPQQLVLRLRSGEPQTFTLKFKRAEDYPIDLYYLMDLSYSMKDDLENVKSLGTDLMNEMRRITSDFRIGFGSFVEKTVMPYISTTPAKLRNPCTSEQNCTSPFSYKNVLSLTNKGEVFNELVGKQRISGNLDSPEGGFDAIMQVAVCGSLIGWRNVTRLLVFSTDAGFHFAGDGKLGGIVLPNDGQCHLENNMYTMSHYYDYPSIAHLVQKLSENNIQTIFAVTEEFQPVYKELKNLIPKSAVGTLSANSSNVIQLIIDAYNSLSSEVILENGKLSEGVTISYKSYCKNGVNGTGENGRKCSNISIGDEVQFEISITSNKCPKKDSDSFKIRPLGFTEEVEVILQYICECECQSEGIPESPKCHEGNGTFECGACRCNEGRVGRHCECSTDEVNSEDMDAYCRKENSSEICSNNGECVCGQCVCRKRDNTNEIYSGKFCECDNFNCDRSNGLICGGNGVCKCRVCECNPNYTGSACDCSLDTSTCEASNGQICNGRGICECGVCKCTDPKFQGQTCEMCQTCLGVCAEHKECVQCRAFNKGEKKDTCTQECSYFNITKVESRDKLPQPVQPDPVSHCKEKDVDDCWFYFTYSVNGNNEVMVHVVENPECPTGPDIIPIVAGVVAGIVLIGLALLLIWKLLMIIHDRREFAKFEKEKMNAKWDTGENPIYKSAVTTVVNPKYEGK
Chain of α4β1 integrin (P13612 34-1032): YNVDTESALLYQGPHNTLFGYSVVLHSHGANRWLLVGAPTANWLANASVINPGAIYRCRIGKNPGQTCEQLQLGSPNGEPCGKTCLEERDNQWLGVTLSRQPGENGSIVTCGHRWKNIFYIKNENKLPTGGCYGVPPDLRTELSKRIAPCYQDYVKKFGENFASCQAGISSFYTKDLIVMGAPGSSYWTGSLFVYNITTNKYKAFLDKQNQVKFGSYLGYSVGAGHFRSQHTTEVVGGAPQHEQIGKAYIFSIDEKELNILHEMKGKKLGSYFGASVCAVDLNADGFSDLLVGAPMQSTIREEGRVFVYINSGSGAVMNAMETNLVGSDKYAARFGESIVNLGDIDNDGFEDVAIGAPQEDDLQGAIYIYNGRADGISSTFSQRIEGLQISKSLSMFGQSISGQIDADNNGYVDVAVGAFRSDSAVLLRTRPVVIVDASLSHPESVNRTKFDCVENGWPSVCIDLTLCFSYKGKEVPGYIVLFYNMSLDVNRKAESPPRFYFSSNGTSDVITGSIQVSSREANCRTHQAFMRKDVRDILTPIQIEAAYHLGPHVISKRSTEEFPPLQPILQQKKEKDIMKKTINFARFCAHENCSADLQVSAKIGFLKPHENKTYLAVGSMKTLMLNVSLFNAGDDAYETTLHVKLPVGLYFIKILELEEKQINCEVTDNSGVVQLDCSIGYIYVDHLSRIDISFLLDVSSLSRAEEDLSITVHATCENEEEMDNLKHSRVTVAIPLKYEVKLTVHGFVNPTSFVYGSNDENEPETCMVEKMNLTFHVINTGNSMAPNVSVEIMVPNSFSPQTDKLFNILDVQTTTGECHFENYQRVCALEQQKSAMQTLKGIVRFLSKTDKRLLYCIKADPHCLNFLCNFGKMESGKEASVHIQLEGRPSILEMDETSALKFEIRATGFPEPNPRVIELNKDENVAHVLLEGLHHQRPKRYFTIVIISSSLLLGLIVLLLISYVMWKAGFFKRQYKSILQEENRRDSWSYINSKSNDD
Chain of α4β1 integrin (P05556 21-798): as the sequence (P05556 21-798) above
T2 sequence (P20701 26-1170): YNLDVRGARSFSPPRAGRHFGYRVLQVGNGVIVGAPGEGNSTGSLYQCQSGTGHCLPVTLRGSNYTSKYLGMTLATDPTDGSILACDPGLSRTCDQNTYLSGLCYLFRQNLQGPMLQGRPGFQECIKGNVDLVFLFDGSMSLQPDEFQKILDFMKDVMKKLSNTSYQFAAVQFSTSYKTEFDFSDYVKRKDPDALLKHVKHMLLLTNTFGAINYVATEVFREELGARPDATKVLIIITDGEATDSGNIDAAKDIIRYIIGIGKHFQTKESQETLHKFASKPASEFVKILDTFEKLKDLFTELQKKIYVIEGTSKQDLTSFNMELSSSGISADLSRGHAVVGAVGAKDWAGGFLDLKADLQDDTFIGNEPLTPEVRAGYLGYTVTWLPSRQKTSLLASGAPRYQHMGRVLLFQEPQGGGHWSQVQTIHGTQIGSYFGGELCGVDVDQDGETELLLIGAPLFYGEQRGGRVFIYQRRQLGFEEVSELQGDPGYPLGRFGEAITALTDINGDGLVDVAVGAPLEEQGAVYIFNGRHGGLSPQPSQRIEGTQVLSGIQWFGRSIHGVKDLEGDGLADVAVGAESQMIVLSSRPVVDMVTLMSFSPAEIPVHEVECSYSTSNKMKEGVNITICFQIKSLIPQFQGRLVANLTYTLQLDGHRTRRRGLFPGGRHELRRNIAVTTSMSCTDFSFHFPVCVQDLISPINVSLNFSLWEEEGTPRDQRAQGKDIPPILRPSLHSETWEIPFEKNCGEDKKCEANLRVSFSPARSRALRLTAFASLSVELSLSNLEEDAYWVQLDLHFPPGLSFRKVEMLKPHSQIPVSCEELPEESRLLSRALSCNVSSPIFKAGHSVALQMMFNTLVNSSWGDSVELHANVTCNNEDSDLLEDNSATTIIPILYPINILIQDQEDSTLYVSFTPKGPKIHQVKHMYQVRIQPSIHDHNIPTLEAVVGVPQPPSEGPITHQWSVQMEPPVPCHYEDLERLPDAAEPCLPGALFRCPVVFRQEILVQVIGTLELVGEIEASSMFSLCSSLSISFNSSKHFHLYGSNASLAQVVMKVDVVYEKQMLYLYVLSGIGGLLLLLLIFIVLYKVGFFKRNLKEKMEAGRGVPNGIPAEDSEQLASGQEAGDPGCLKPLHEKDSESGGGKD
T2 sequence (P05107 23-769): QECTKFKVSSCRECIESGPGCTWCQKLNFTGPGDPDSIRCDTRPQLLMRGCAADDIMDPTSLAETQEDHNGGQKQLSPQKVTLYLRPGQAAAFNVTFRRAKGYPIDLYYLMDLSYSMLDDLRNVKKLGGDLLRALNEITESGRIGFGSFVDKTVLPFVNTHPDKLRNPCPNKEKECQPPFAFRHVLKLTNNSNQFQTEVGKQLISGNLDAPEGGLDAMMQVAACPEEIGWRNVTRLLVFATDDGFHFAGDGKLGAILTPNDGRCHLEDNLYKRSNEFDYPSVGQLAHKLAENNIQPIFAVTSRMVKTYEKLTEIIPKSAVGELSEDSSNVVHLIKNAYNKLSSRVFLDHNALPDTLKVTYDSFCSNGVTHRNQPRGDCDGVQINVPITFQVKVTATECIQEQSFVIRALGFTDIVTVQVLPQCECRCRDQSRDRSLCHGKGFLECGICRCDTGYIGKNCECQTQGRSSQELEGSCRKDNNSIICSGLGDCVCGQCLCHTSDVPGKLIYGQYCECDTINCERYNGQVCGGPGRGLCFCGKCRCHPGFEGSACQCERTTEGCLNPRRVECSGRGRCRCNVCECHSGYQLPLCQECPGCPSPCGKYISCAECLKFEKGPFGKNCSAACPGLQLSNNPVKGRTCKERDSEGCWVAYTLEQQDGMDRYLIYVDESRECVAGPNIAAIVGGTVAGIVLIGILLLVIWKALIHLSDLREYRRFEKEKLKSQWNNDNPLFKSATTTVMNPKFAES

| Substance | inhibition of M16B adhesion to rCS1 (α4β1 integrin) | inhibition of K562 adhesion to FN at the maximal concentration tested (α5β1 integrin; 0.84 mM peptide, K562 cells stimulated with 1 mM MnCl2) | pIC50 (α5β1 integrin; K562 cells stimulated with 1 mM MnCl2, adhesion to FN, read-out: half-maximal inhibitory concentration) | inhibition of M14#5 cell adhesion to laminin (α2β1 and α3β1 integrin; laminin coated substrate) | inhibition of M14#5 cell adhesion to type IV collagen (α2β1 and α3β1 integrin; type IV collagen coated substrate) | inhibition of M16B adhesion to rICAM (α1β2 (LFA-1) integrin) | inhibition of leukocyte adhesion to fibronectin in vitro [1] | anti-inflammatory properties [2] | inhibition of adhesion to VCAM (VCAM) |
| --- | --- | --- | --- | --- | --- | --- | --- | --- | --- |
| DELPQLVTLPHPNLHGPEILDVPST (listed as Homo sapiens) [CS1, fibronectin residues 1961-1985] | completely inhibited |  |  |  |  |  |  |  |  |
| WQPPRARIY-OH [SEQ ID NO:1] | completely inhibited | completely inhibited | 3.70 | inhibited | inhibited | not inhibited | inhibit leukocyte adhesion to fibronectin in vitro | exhibit anti-inflammatory properties | inhibit adhesion to VCAM |
| YEKPGSPPREV-VPRPRPGVY (YEKPGSPPREVVPRPRPGVY; listed as Homo sapiens) [FN-C/H I+Y] |  |  |  |  |  |  | inhibit leukocyte adhesion to fibronectin in vitro | exhibit anti-inflammatory properties |  |
